Source: patent US20060069132A1, “Azolecarboxamide herbicides” (priority 2004, published 2006)

Assays:
Test in all cases: Test E pre-/postemergence herbicide test
Details in all cases: Preemergence
purple nutsedge = type: in vivo, Cyperus rotundus
Outline: (§1)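 In this greenhouse assay, compounds in a solvent vehicle containing surfactant were applied pre- and postemergence, the latter to plants 2 to 18 cm high. Control was judged by eye after 12 to 14 days on a 0 to 100 scale.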

itchgrass = type: in vivo, Rottboellia cochinchinensis
Outline: as §1

common sowthistle = type: in vivo, Sonchus oleraceous
Outline: as §1

common purslane = type: in vivo, Portulaca oleracea
Outline: as §1

common chickweed = type: in vivo, Stellaria media
Outline: as §1

broadleaf signalgrass = type: in vivo, Brachiaria platyphylla
Outline: as §1

annual bluegrass = type: in vivo, Poa annua
Outline: as §1

green foxtail = type: in vivo, Setaria viridis
Outline: as §1

goosegrass = type: in vivo, Eleusine indica
Outline: as §1

johnsongrass = type: in vivo, Sorghum halepense
Outline: as §1

downy bromegrass = type: in vivo, Bromus tectorum
Outline: as §1

bermudagrass = type: in vivo, Cynodon dactylon
Outline: as §1

[1] = 250 g ai/ha, scale 0 (no effect) to 100 (complete control)
[2] = 500 g ai/ha, scale 0 (no effect) to 100 (complete control)

CCc1nn(C(C)(C)CC)nc1C(=O)Nc1cccc(C(=O)N(C)C)c1 [Compound 372]
40: Plant response rating, Sowthistle (common sowthistle; 125 g ai/ha, scale 0 to 100) | Plant response rating, Sowthistle (common sowthistle; [1]) | Plant response rating, Purslane (common purslane; 125 g ai/ha, scale 0 to 100) | Plant response rating, Signalgrass (broadleaf signalgrass; [1]) | Plant response rating, Goosegrass (goosegrass; 62 g ai/ha, scale 0 to 100) | Plant response rating, Goosegrass (goosegrass; 125 g ai/ha, scale 0 to 100)
100: Plant response rating, Nutsedge, Purple (purple nutsedge; [2]) | Plant response rating, Purslane (common purslane; [2])
0: Plant response rating, Signalgrass (broadleaf signalgrass; 62 g ai/ha, scale 0 to 100)
85: Plant response rating, Bromegrass, Downy (downy bromegrass; [2])
90: Plant response rating, Chickweed (common chickweed; 125 g ai/ha, scale 0 to 100) | Plant response rating, Bermudagrass (bermudagrass; [2])
50: Plant response rating, Nutsedge, Purple (purple nutsedge; [1]) | Plant response rating, Purslane (common purslane; [1]) | Plant response rating, Foxtail, Green (green foxtail; 125 g ai/ha, scale 0 to 100) | Plant response rating, Goosegrass (goosegrass; [1]) | Plant response rating, Johnsongrass (johnsongrass; 125 g ai/ha, scale 0 to 100)
70: Plant response rating, Foxtail, Green (green foxtail; [2]) | Plant response rating, Johnsongrass (johnsongrass; [1]) | Plant response rating, Bromegrass, Downy (downy bromegrass; 125 g ai/ha, scale 0 to 100)
75: Plant response rating, Goosegrass (goosegrass; [2])
20: Plant response rating, Bromegrass, Downy (downy bromegrass; 62 g ai/ha, scale 0 to 100)
95: Plant response rating, Sowthistle (common sowthistle; [2]) | Plant response rating, Chickweed (common chickweed; [1]) | Plant response rating, Chickweed (common chickweed; [2]) | Plant response rating, Bluegrass (annual bluegrass; [1]) | Plant response rating, Bluegrass (annual bluegrass; [2])
80: Plant response rating, Itchgrass (itchgrass; [2]) | Plant response rating, Bluegrass (annual bluegrass; 125 g ai/ha, scale 0 to 100) | Plant response rating, Johnsongrass (johnsongrass; [2]) | Plant response rating, Bromegrass, Downy (downy bromegrass; [1])
10: Plant response rating, Sowthistle (common sowthistle; 62 g ai/ha, scale 0 to 100) | Plant response rating, Purslane (common purslane; 62 g ai/ha, scale 0 to 100) | Plant response rating, Signalgrass (broadleaf signalgrass; 125 g ai/ha, scale 0 to 100) | Plant response rating, Foxtail, Green (green foxtail; 62 g ai/ha, scale 0 to 100) | Plant response rating, Bermudagrass (bermudagrass; 62 g ai/ha, scale 0 to 100)
60: Plant response rating, Itchgrass (itchgrass; 125 g ai/ha, scale 0 to 100) | Plant response rating, Itchgrass (itchgrass; [1]) | Plant response rating, Chickweed (common chickweed; 62 g ai/ha, scale 0 to 100) | Plant response rating, Signalgrass (broadleaf signalgrass; [2]) | Plant response rating, Foxtail, Green (green foxtail; [1]) | Plant response rating, Bermudagrass (bermudagrass; 125 g ai/ha, scale 0 to 100) | Plant response rating, Bermudagrass (bermudagrass; [1])
30: Plant response rating, Nutsedge, Purple (purple nutsedge; 62 g ai/ha, scale 0 to 100) | Plant response rating, Itchgrass (itchgrass; 62 g ai/ha, scale 0 to 100) | Plant response rating, Bluegrass (annual bluegrass; 62 g ai/ha, scale 0 to 100) | Plant response rating, Johnsongrass (johnsongrass; 62 g ai/ha, scale 0 to 100)

Cc1nn(C(C)(C)C)nc1C(=O)Nc1cccc(C(=O)N(C)C)c1 [Compound 391]
40: Plant response rating, Signalgrass (broadleaf signalgrass; 62 g ai/ha, scale 0 to 100) | Plant response rating, Johnsongrass (johnsongrass; 62 g ai/ha, scale 0 to 100)
50: Plant response rating, Itchgrass (itchgrass; 62 g ai/ha, scale 0 to 100) | Plant response rating, Sowthistle (common sowthistle; 62 g ai/ha, scale 0 to 100) | Plant response rating, Purslane (common purslane; 62 g ai/ha, scale 0 to 100)
60: Plant response rating, Foxtail, Green (green foxtail; 62 g ai/ha, scale 0 to 100) | Plant response rating, Johnsongrass (johnsongrass; 125 g ai/ha, scale 0 to 100)
80: Plant response rating, Itchgrass (itchgrass; 125 g ai/ha, scale 0 to 100) | Plant response rating, Foxtail, Green (green foxtail; 125 g ai/ha, scale 0 to 100) | Plant response rating, Goosegrass (goosegrass; 125 g ai/ha, scale 0 to 100)
10: Plant response rating, Bromegrass, Downy (downy bromegrass; 62 g ai/ha, scale 0 to 100)
70: Plant response rating, Signalgrass (broadleaf signalgrass; 125 g ai/ha, scale 0 to 100)
95: Plant response rating, Itchgrass (itchgrass; [2]) | Plant response rating, Purslane (common purslane; 125 g ai/ha, scale 0 to 100) | Plant response rating, Bluegrass (annual bluegrass; 62 g ai/ha, scale 0 to 100) | Plant response rating, Bluegrass (annual bluegrass; 125 g ai/ha, scale 0 to 100) | Plant response rating, Bluegrass (annual bluegrass; [1]) | Plant response rating, Bluegrass (annual bluegrass; [2]) | Plant response rating, Foxtail, Green (green foxtail; [1]) | Plant response rating, Goosegrass (goosegrass; [2]) | Plant response rating, Bromegrass, Downy (downy bromegrass; [1]) | Plant response rating, Bromegrass, Downy (downy bromegrass; [2]) | Plant response rating, Bermudagrass (bermudagrass; [1]) | Plant response rating, Bermudagrass (bermudagrass; [2])
85: Plant response rating, Johnsongrass (johnsongrass; [1]) | Plant response rating, Bermudagrass (bermudagrass; 62 g ai/ha, scale 0 to 100)
75: Plant response rating, Nutsedge, Purple (purple nutsedge; [1]) | Plant response rating, Nutsedge, Purple (purple nutsedge; [2]) | Plant response rating, Sowthistle (common sowthistle; 125 g ai/ha, scale 0 to 100)
30: Plant response rating, Goosegrass (goosegrass; 62 g ai/ha, scale 0 to 100) | Plant response rating, Bromegrass, Downy (downy bromegrass; 125 g ai/ha, scale 0 to 100)
90: Plant response rating, Itchgrass (itchgrass; [1]) | Plant response rating, Chickweed (common chickweed; 62 g ai/ha, scale 0 to 100) | Plant response rating, Chickweed (common chickweed; 125 g ai/ha, scale 0 to 100) | Plant response rating, Signalgrass (broadleaf signalgrass; [1]) | Plant response rating, Signalgrass (broadleaf signalgrass; [2]) | Plant response rating, Goosegrass (goosegrass; [1]) | Plant response rating, Bermudagrass (bermudagrass; 125 g ai/ha, scale 0 to 100)
100: Plant response rating, Sowthistle (common sowthistle; [1]) | Plant response rating, Sowthistle (common sowthistle; [2]) | Plant response rating, Purslane (common purslane; [1]) | Plant response rating, Purslane (common purslane; [2]) | Plant response rating, Chickweed (common chickweed; [1]) | Plant response rating, Chickweed (common chickweed; [2]) | Plant response rating, Foxtail, Green (green foxtail; [2]) | Plant response rating, Johnsongrass (johnsongrass; [2])
